According to patent US20230339915A1 (Vertex Pharmaceuticals Incorporated, priority 2020, published 2023):

Key:
[1] = target: purified Z-AAT protein from human plasma (Homo sapiens (Human), UniProt P01009, E366K); assay: Biochemical Assay (Z-AAT Elastase Activity Assay); details: purified Z-AAT pre-incubated with compound 1 hour, then human neutrophil elastase and fluorescent substrate
From the text: B. Biochemical Assay (Z-AAT Elastase Activity Assay)
This assay measured the modulation of Compounds 1-227 on Z-AAT SERpIN activity using purified Z-AAT protein and purified human neutrophil elastase (hNE). Normally, when active monomeric Z-AAT encounters a protease such as trypsin or elastase, it forms a 1:1 covalent “suicide” complex in which both the AAT and protease are irreversibly inactivated. However, compounds binding to Z-AAT can lead to a decrease in SERpIN activity. In such cases, when a protease encounters compound-bound Z-AAT, the protease cleaves and inactivates Z-AAT without itself being inactivated.
Reagents • PBS buffer (media prep)+0.01% BRIJ35 detergent (Calbiochem catalog #203728) Opti-MEM media (Fisher 11058-021) • Human neutrophil elastase (hNE, Athens Research #16-14-051200) • 3.4 μM stock (0.1 mg/mL) prepared in 50 mM Na Acetate, pH 5.5, 150 mM NaCl, stored at −80° C. • Elastase substrate V (ES V, fluorescent peptide substrate MeOSuc-Ala-Ala-Pro-Val-AMC, Calbiochem catalog #324740) • 20 mM stock in DMSO, stored at −20° C. • Purified Z-AAT protein from human plasma; • 12.9 μM (0.67 mg/mL) Z-AAT Vertex Cambridge Sample 4942, from patient • #061-SSN, stored at −80 C
Plates • Corning 4511 (384 well black low volume)
Instruments • PerkinElmer® EnVision™
Pre-Incubation of Z-AAT with Compounds • 1. 7.5 μL of Z-AAT (20 nM) was incubated with compounds 1-227 in a GCA plate for 1 hour at room temperature
Addition of hNE • 1. 7.5 ul of HNE solution (3 nM in PBS+0.01% BRIJ35) added into GCA plate • 2. Incubate plate for 30 minutes to allow Z-AAT/HNE suicide complex formation.
Addition of Substrate and Read Plate on PE Envision • 1. 7.5 μL of substrate (300 μM solution of elastase substrate (ES V) in PBS+0.01% BRIJ35) dispensed per well into GCA plate • 2. Immediately read on Envision.

[2] = target: NL20 human bronchial epithelial cells expressing human Z-AAT (Homo sapiens (Human), UniProt P01009, E366K); assay: AAT Function Assay (MSD Assay NL20-SI Cell Line); type: cell-based; details: functionally active AAT (AAT-hNE complex, MSD) in supernatant of NL20 cells expressing human Z-AAT; read-out: NL20 Functional EC50
Protocol: A. AAT Function Assay (MSD Assay NL20-SI Cell Line)
Alpha-1 antitrypsin (AAT) is a SERpIN (serine protease inhibitor) that inactivates enzymes by binding to them covalently. This assay measured the amount of functionally active AAT in a sample in the presence of the disclosed Compounds 1-227 by determining the ability of AAT to form an irreversible complex with human neutrophil Elastase (hNE). In practice, the sample (cell supernatant, blood sample, or other) was incubated with excess hNE to allow AAT-Elastase complex to be formed with all functional AAT in the sample. This complex was then captured to a microplate coated with an anti-AAT antibody. The complex captured to the plate was detected with a labeled anti-Elastase antibody and quantitated using a set of AAT standards spanning the concentration range present in the sample. Meso Scale Discovery (MSD) plate reader, Sulfo-tag labeling, and microplates were used to provide high sensitivity and wide dynamic range.
Instrument(S): • Meso Sector S600 • Bravo • Washer dispenser • Multidrop Combi
Day 1 Cell Culture • 1. Harvest NL20 human bronchial epithelial cells expressing human Z-AAT in OptiMEM™ containing Pen/Strep (P/S) • 2. Seed at 16,000 cells/well in 30 μL (384 well plate) • 3. Centrifuge plates briefly up to speed (1200 rpm) and place into 37° C. incubator overnight
Day 2: Compound Addition and Coating Plates with Capture Antibody
Compound Addition: • 1. Dispense 40 μL of OptiMEM™ (P/S) with doxycycline (1:1000 stock=0.1 μM final) to each well of the compound plate using a multidrop Combi in hood • 2. Remove cell plate from incubator, flip/blot and take immediately to Bravo to transfer compounds • 3. Return plates to incubator overnight
Coat MSD Plates • 1. Dilute capture antibody (Polyclonal Goat anti-AAT) to 5 μg/mL (1:200) in PBS (no BSA). • 2. Dispense 25 μL of diluted capture antibody into all wells of MSD 384-well High Bind plate using the Multidrop equipped with a standard cassette. • 3. Incubate overnight at 4° C.
Prepare Blocker A (BSA) Solutions • 1. Prepare solution of 5% MSD Blocker A (BSA) following the manufacturer's instructions. • 2. Further dilute the 5% MSD Blocker A in PBS to 1% (Blocker A) as needed.
Block Plates • 1. Wash plate 1× with 50 μL Wash buffer (PBS+0.5% Tween 20), and adds 35 μL 5% Block A buffer to block non-specific binding on washer dispenser • 2. Rotate plates on shaker for 1 hour at 600 rpm
Prepare M-AA T Standards • 1. Dilute M-AAT stock to 1.6 μg/mL in 1% BSA Blocker A (Stock in −70° C.); then prepare 12×1:2 serial dilutions in 1% Blocker A • 2. The top starting final concentration on MSD plate is 320 ng/mL. These dilutions correspond to a final concentration of 320, 160, 80, 40, 20, 10, 5, 2.5, 1.25, 0.625, 0.312, 0.156 ng/mL.
Dilution Plate • 1. Add 80 μL of 1% Assay buffer to all wells except columns 1/24 (standards) with Multidrop Combi • 2. Add diluted standards to columns 1 and 24 • 3. Centrifuge dilution plates 1200 rpm briefly
Cell Plate • 1. Aspirate columns which will have the standards from the cell plates in the hood using 16-pin aspirator
Prepare Human Neutrophil Elastase (hNE) • 1. Prepare 1 μg/mL Human Neutrophil Elastase by diluting in 1% Blocker A. • a. Small 100 μg vial—add 1 mL PBS (100 μg/mL) • i. This can then be diluted 1:100 in 1% Assay Buffer for a final 1 μg/mL concentration
MSD—add hNE (20 μL/well) • 1. After the MSD plate has blocked for at least 1 hour, wash plate 1× with 50 μL Wash buffer (PBS+0.5% Tween 20) and then add 20 μL hNE to each well
Bravo—Cell Plate—Dilution Plate—MSD Plate
Using the Bravo aspirate 10 μL from the cell plate, transfer to the dilution plate (9-fold dilution) • 1. Mix 25 μL 3×, then aspirate 5 μL, transfer to MSD plate (5-fold dilution) • 2. Mix 10 μL 3×. Total dilution is 45 fold. • 3. Shake plates at 600 rpm for 1.5 hours
Add Functional Detection hNE Antibody • 1. Wash plate 1× with wash buffer • 2. […]

purified Z-AAT protein from human plasma, sequence (P01009 25-418 E366K limits assumed): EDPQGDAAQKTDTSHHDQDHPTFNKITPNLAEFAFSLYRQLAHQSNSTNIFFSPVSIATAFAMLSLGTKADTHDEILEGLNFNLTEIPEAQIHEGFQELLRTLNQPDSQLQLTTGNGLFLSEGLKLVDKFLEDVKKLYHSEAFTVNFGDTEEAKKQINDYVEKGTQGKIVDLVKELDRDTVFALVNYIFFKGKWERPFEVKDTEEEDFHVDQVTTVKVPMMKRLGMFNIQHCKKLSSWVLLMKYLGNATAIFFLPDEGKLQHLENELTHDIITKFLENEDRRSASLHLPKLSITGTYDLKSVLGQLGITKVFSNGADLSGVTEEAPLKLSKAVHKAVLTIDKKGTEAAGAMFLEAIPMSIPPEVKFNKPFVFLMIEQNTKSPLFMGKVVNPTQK
NL20 human bronchial epithelial cells expressing human Z-AAT, sequence (P01009 25-418 E366K limits assumed): as above

Row | SMILES | IC50 [1] [µM] | EC50 [2] [µM]
1 | Cc1cc(-n2c(C(C)C)c(-c3ccccc3C(=O)O)c3cc(O)ccc32)ccc1F [Compound 169] | > 30 | > 2
2 | O=C(O)[C@]1(CF)C[C@H](c2c(C3CCOCC3)n(-c3ccc(F)cc3)c3ccc(O)cc32)C1 [Compound 119] | > 30 | > 2
3 | Cc1cc(-n2c(C(C)C)c([C@H]3C[C@@H](CO)C3)c3cc(O)ccc32)ccc1F [Compound 226, cis-1-(4-fluoro-3-methyl-phenyl)-3-[3-(hydroxymethyl)cyclobutyl]-2-isopropyl-indol-5-ol] | > 30 | > 2
4 | O=C(O)[C@H]1CC2(C1)C[C@H](c1c(C3CCOCC3)n(-c3ccc(F)cc3)c3ccc(O)cc31)C2 (stereo partly shown) [Compound 51] | > 30 | 0.5 to 2
5 | Cc1cc(-n2c(C3CCS(=O)(=O)CC3)c(C3CC4(CC(C(=O)O)C4)C3)c3cc(O)ccc32)ccc1F (stereo not shown) [Compound 47] | > 30 | > 2
6 | Cc1cc(-n2c([C@H]3CCCO3)c([C@H]3C[C@@H]3C(=O)O)c3cc(O)ccc32)ccc1F [Compound 126] | > 30 | > 2
7 | CC(C)c1c(CCC(C)(C)C(=O)O)c2cc(O)ccc2n1-c1ccc(F)cc1 [Compound 70] | > 30 | 0.5 to 2
8 | N#Cc1c(C2CCCO2)n(-c2ccc(F)cc2)c2ccc(O)cc12 (stereo not shown) [Compound 198] | > 30 | > 2
9 | Cc1cc(-n2c(C3COC3)c([C@H]3C[C@@H]3C(=O)O)c3cc(O)ccc32)ccc1F [Compound 131] | > 30 | > 2
10 | Cc1cc(-n2c(C(C)C)c([C@@H]3COC[C@@H]3C(=O)O)c3cc(O)ccc32)ccc1F (racemic) [Compound 83] | > 30 | > 2
11 | Cc1cc(-n2c(C(C)C)c(C3CN(CC(=O)O)C3)c3cc(O)ccc32)ccc1F [Compound 147] | > 30 | > 2
12 | CO[C@]1(C(=O)O)C[C@@H](c2c(C(C)C)n(-c3ccc(F)c(C)c3)c3ccc(O)cc32)C1 [Compound 67] | > 30 | > 2
13 | CC(C)(CCc1c(C2CCOCC2)n(-c2ccc(F)c(Cl)c2)c2ccc(O)cc12)C(=O)O [Compound 29] | > 30 | 0.5 to 2
14 | Cc1cc(-n2c(C3CCOCC3)c([C@H]3C[C@@H](C(=O)O)C3)c3cc(O)ccc32)ccn1 [Compound 143] | > 30 | > 2
15 | C[C@]1(C(=O)O)C[C@H](c2c(C3CCOCC3)n(-c3ccc(F)c(F)c3)c3ccc(O)cc32)C1 [Compound 39] | > 30 | > 2
16 | Cc1cc(-n2c(C3CCOCC3)c(C[C@H]3C[C@@H](C(=O)O)C3)c3cc(O)ccc32)ccc1F [Compound 8] | > 30 | 0.5 to 2
17 | C[C@]1(C(=O)O)C[C@@H](c2c(C3CCOCC3)n(-c3ccc(F)cc3)c3ccc(O)cc32)C1 [Compound 49] | > 30 | > 2
18 | O=C(O)[C@]1(CF)C[C@@H](c2c(C3CCOCC3)n(-c3ccc(F)c(Cl)c3)c3ccc(O)cc32)C1 [Compound 110] | > 30 | > 2

Continued, values first:

Row | IC50 [1] [µM] | EC50 [2] [µM] | SMILES
19 | < 2 | < 0.5 | Cc1cc(-n2c(C(C)C)c(C3CC4(C3)CC(F)(C(=O)O)C4)c3cc(O)ccc32)ccc1F (stereo not shown) [Compound 148, 2-fluoro-6-(1-(4-fluoro-3-methylphenyl)-5-hydroxy-2-isopropyl-1H-indol-3-yl)spiro[3.3]heptane-2-carboxylic acid]
20 | > 30 | > 2 | Cc1cc(-n2c(C)c(C#N)c3cc(O)cc(N)c32)ccc1F [Compound 212, 7-amino-1-(4-fluoro-3-methyl-phenyl)-5-hydroxy-2-methyl-indole-3-carbonitrile]
21 | > 30 | > 2 | Cc1cc(-n2c(C3CC3)c(C(Cc3ccccc3)C(=O)O)c3cc(O)ccc32)ccc1F (stereo not shown) [Compound 156, 2-(2-cyclopropyl-1-(4-fluoro-3-methylphenyl)-5-hydroxy-1H-indol-3-yl)-3-phenylpropanoic acid]
22 | > 5 | 0.5 to 2 | Cc1cc(-n2c(C(C)C)c([C@H]3CC[C@H](C(=O)O)C3)c3cc(O)ccc32)ccc1F (racemic) [Compound 79]
23 | > 5 | < 0.5 | CC(C)(C)c1c(C#N)c2cc(O)ccc2n1-c1ccc(F)cc1 [Compound 186]
24 | > 5 | 0.5 to 2 | Cc1cc(-n2c(C(F)(F)F)c([C@H]3C[C@](C)(C(=O)O)C3)c3cc(O)ccc32)ccc1F [Compound 139, trans-3-(1-(4-fluoro-3-methylphenyl)-5-hydroxy-2-(trifluoromethyl)-1H-indol-3-yl)-1-methylcyclobutane-1-carboxylic acid]
25 | < 2 | 0.5 to 2 | CC(C)c1c(C2CC3(CC(C(=O)O)C3)C2)c2cc(O)ccc2n1-c1ccc(F)cc1 (stereo not shown) [Compound 80]
26 | > 5 | > 2 | Cc1cc(-n2c(C(C)C)c([C@H]3C[C@@H](C#N)C3)c3cc(O)ccc32)ccc1F [Compound 215, 3-[1-(4-fluoro-3-methyl-phenyl)-5-hydroxy-2-isopropyl-indol-3-yl]cyclobutanecarbonitrile]
27 | > 5 | < 0.5 | Cc1cc(-n2c(C(C)C)c([C@H]3C[C@@](C(=O)O)(C(F)(F)F)C3)c3cc(O)ccc32)ccc1F [Compound 60]
28 | 2 to 5 | < 0.5 | Cc1cc(-n2c(C(C)C)c(-c3cccc(C(=O)O)c3)c3cc(O)ccc32)ccc1F [Compound 168]
29 | > 5 | 0.5 to 2 | Cc1cc(-n2c(C(C)C)c([C@H]3C[C@H](C(=O)O)C3)c3cc(O)ccc32)ccc1F [Compound 145]
